In ChEMBL document CHEMBL3244295, “A ureido group containing analogue of oxytocin comprising eight amino acid residues” (J Med Chem, 1978):
Residues, ends and D or L forms follow the SMILES beside them.

Key:
[1] = Uterotonic activity in virgin rat uterus relative to oxytocin; type: functional
Rattus norvegicus = assay: Antidiuretic activity in anesthetized rat assessed per mg; type: functional, Urine
[2] = Uterotonic activity in virgin rat uterus; type: functional
Oxytocin-like receptor = target: T1, Oxytocin-like receptor (Gallus gallus, UniProt Q5D7U5); assay: Antagonist activity at oxytocin receptor in conscious chicken assessed as inhibition of oxytocin-induced vaspdepressor response; details: read-out: pA2 (converted)
T1 sequence (Q5D7U5 whole entry): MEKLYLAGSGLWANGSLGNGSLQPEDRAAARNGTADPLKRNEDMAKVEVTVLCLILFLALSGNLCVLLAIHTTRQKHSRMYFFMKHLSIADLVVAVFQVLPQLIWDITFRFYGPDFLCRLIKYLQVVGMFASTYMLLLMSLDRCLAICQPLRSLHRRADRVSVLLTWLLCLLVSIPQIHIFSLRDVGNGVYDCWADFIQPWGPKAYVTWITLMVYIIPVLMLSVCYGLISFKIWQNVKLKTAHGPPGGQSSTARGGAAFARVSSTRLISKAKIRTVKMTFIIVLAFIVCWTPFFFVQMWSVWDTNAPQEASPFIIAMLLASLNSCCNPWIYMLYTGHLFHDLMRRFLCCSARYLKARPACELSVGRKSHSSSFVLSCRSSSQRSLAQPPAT

Kb (Oxytocin-like receptor) [nM]	Compound	Activity [1] [%]	Activity (Rattus norvegicus) [U]	Activity [2] [U/mg]
53.7	[H][C@@]1([C@@H](C)CC)NC(=O)[C@H](Cc2ccc(O)cc2)NC(=O)NCCCC[C@@H](C(=O)N2CCC[C@H]2C(=O)N[C@@H](CC(C)C)C(=O)NCC(N)=O)NC(=O)[C@H](CC(N)=O)NC(=O)[C@H](CCC(N)=O)NC1=O (HELM PEPTIDE1{Y.I.Q.N.K.P.L.G.[am]}|CHEM1{[O=C([*:1])[*:2]]}$PEPTIDE1,CHEM1,1:R1-1:R1|PEPTIDE1,CHEM1,5:R3-1:R2$$$V2.0)	0.8	<0.05	3.9
31.6	CC[C@H](C)[C@@H]1NC(=O)[C@H](Cc2ccc(O)cc2)NC(=O)[C@@H](N)C(C)(C)SSC[C@@H](C(=O)N2CCC[C@H]2C(=O)N[C@@H](CC(C)C)C(=O)NCC(N)=O)NC(=O)[C@H](CC(N)=O)NC(=O)[C@H](CCC(N)=O)NC1=O	–	–	–
